According to patent US8017612B2, “Piperazine compound and use thereof as a HCV polymerase inhibitor” (priority 2006, dated 2011):
Where a name gives a salt, the structure may show the parent alone.

Columns and labels:
[1] = biological target: T1, HCV polymerase (NS5B) type 1b (Hepatitis C virus genotype 1b, UniProt P26663); test: Assay of enzyme (HCV polymerase) inhibitory activity, type 1b enzyme; assay type: biochemical, HCV BK strain (type 1b)
T1 construct: a region encoding NS5B (J Virol 1991 March, 65(3), 1105-13, 544 amino acids after deletion of 47 amino acids on the C-terminal); 6xHis (C); made in house; host or cells: Escherichia coli
Method in brief: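 IC50 derived from [3H]UTP incorporation into TCA-insoluble RNA, compared with and without test compound. Reaction (25 °C, 60 min, Tris pH 7.5, 5 mM MgCl2): E. coli-expressed 1b NS5B Δ47 with His tag at 0.5 μg/ml, 5 μg/ml run-off substrate RNA, ATP/GTP/CTP 50 μM, UTP 2 μM.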

[2] = biological target: T2, HCV polymerase (NS5B) type 1a (Hepatitis C virus genotype 1a, UniProt P26664); test: Assay of enzyme (HCV polymerase) inhibitory activity, type 1a enzyme; assay type: biochemical, HCV type 1a (cloned from the blood of patients)
T2 construct: made in house; host or cells: Escherichia coli (by the 'similar method' of the 1b enzyme)
Method in brief: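 Reactions ran 60 min at 25° C in 20 mM Tris-HCl pH 7.5, 5 mM MgCl2, 50 mM NaCl, holding genotype 1a NS5B (1.5 μg/ml, Δ47 C-terminus, 6His), substrate RNA 5 μg/ml, UTP 2 μM with tritiated UTP and other NTPs 50 μM. IC50 derived from incorporated radiolabel in filter-trapped RNA relative to uninhibited reaction.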

[3] = HCV polymerase inhibitory activity (IC50), 1b, type 1b enzyme 0.5 μg/ml, 25° C., 60 min
[4] = HCV polymerase inhibitory activity (IC50), 1a, type 1a enzyme 1.5 μg/ml, 25° C., 60 min
[5] = HCV polymerase inhibitory activity IC50, 1b, type 1b enzyme
[6] = HCV polymerase inhibitory activity IC50, 1a, type 1a enzyme

For `CC(C)c1ccc(CNC(=O)[C@H]2CN(C(=O)CN)CCN2S(=O)(=O)c2ccc(C(F)(F)F)cc2)cc1` [Example 225, (R)-4-(2-amino-acetyl)-1-(4-trifluoromethyl-benzenesulfonyl)-piperazine-2-carboxylic acid 4-isopropyl-benzylamide hydrochloride], the IC50 [1, 3] was 0.1 to 1 µM and the IC50 [2, 4] was 0.1 to 1 µM.

In the case of `CC(C)c1ccc(CNC(=O)[C@H]2CN(C(=O)Cc3nnn[nH]3)CCN2S(=O)(=O)c2ccc(C(F)(F)F)cc2)cc1` [Example 261, (R)-4-(2-1H-tetrazol-5-yl-acetyl)-1-(4-trifluoromethyl-benzenesulfonyl)-piperazine-2-carboxylic acid 4-isopropyl-benzylamide], the IC50 [1, 3] is reported as 0.1 to 1 µM and the IC50 [2, 4] is reported as over 1 µM.

With `CCCc1ccc(CNC(=O)[C@H]2CN(c3cnc(C(=O)O)c(C)n3)CCN2S(=O)(=O)c2ccc(OC(F)(F)F)cc2)cc1` [Example 449, (R)-6′-methyl-3-(4-propyl-benzylcarbamoyl)-4-(4-trifluoromethoxy-benzenesulfonyl)-3,4,5,6-tetrahydro-2H-[1,2′]bipyrazinyl-5′-carboxylic acid] the IC50 [1, 3] was under 0.1 µM and the IC50 [2, 4] was under 0.1 µM.

With `Cc1nc(N2CCN(S(=O)(=O)c3ccc(OC(F)(F)F)cc3)[C@@H](C(=O)NCc3ccccc3)C2)sc1C(=O)O` [Example 401, 2-[(R)-3-benzylcarbamoyl-4-(4-trifluoromethoxy-benzenesulfonyl)-piperazin-1-yl]-4-methyl-thiazole-5-carboxylic acid] the IC50 [1, 3] was 0.1 to 1 µM and the IC50 [2, 4] was over 1 µM.

With `CCCc1ccc(CNC(=O)[C@H]2CN(c3ccc(C(=O)O)c(C)n3)CCN2S(=O)(=O)c2ccc(OC(F)(F)F)cc2)cc1` [Example 822, 2-methyl-6-[(R)-3-(4-propyl-benzylcarbamoyl)-4-(4-trifluoromethoxy-benzenesulfonyl)-piperazin-1-yl]-nicotinic acid] the IC50 [1, 5] was under 0.1 µM and the IC50 [2, 6] was under 0.1 µM.

`CCC(F)(F)c1ccc(CNC(=O)[C@H]2CN(C(=O)C(=O)O)CCN2S(=O)(=O)c2ccc(OC(F)(F)F)cc2)cc1` [Example 679, [(R)-3-[4-(1,1-difluoro-propyl)-benzylcarbamoyl]-4-(4-trifluoromethoxy-benzenesulfonyl)-piperazin-1-yl]-oxo-acetic acid] was tested, and the IC50 [1, 5] was over 1 µM and the IC50 [2, 6] was over 1 µM.

Compound `CC(C)(C)c1ccc(CNC(=O)[C@H]2CN(c3nc4c(s3)C(=O)NCC4)CCN2S(=O)(=O)c2ccc(OC(F)(F)F)cc2)cc1` [Example 578, (R)-4-(4-oxo-4,5,6,7-tetrahydro-thiazolo[5,4-c]pyridin-2-yl)-1-(4-trifluoromethoxy-benzenesulfonyl)-piperazine-2-carboxylic acid 4-tert-butyl-benzylamide] has an IC50 [1, 3] of under 0.1 µM and an IC50 [2, 4] of under 0.1 µM.

Work on `CC(=O)N1CCN(S(=O)(=O)c2ccc(C(C)C)cc2)C(C(=O)NCc2ccc(N3CCCCC3)cc2)C1` (stereo not shown) [Example 109, 4-acetyl-1-(4-isopropyl-benzenesulfonyl)-piperazine-2-carboxylic acid 4-piperidin-1-yl-benzylamide] yielded an IC50 [1, 3] of over 1 µM and an IC50 [2, 4] of over 1 µM.

`Cc1nnc(Cl)c2sc(N3CCN(S(=O)(=O)c4ccc(OC(F)(F)F)cc4)[C@@H](C(=O)NCc4ccc(OC(F)(F)F)cc4)C3)nc12` [Example 906, (R)-4-(7-chloro-4-methyl-thiazolo[4,5-d]pyridazin-2-yl)-1-(4-trifluoromethoxy-benzenesulfonyl)-piperazine-2-carboxylic acid 4-trifluoromethoxy-benzylamide] showed an IC50 [1, 5] of under 0.1 µM and an IC50 [2, 6] of under 0.1 µM.

In the case of `CCC(F)(F)c1ccc(CNC(=O)[C@H]2CN(c3cnc4cnccc4n3)CCN2S(=O)(=O)c2ccc(Cl)cc2)cc1` [Example 713, (R)-1-(4-chloro-benzenesulfonyl)-4-pyrido[3,4-b]pyrazin-2-yl-piperazine-2-carboxylic acid 4-(1,1-difluoro-propyl)-benzylamide], the IC50 [1, 5] is reported as under 0.1 µM and the IC50 [2, 6] is reported as under 0.1 µM.

Work on `CCN(C)c1ccc(CNC(=O)[C@H]2CN(c3nc(C)c(C(=O)O)s3)CCN2S(=O)(=O)c2ccc(OC(F)(F)F)cc2)cc1` [Example 424, 2-[(R)-3-[4-(ethyl-methyl-amino)-benzylcarbamoyl]-4-(4-trifluoromethoxy-benzenesulfonyl)-piperazin-1-yl]-4-methyl-thiazole-5-carboxylic acid] yielded an IC50 [1, 3] of under 0.1 µM and an IC50 [2, 4] of under 0.1 µM.

`CC(=O)N1CCN(S(=O)(=O)c2ccc(OC(F)(F)F)cc2)[C@@H](C(=O)NCCc2cccc(O)c2)C1` [Example 674, (R)-4-acetyl-1-(4-trifluoromethoxy-benzenesulfonyl)-piperazine-2-carboxylic acid [2-(3-hydroxy-phenyl)-ethyl]-amide] was tested, and the IC50 [1, 5] was over 1 µM and the IC50 [2, 6] was over 1 µM.

`CCCc1ccc(CNC(=O)[C@H]2CN(c3cnc4cncc(C(=O)O)c4n3)CCN2S(=O)(=O)c2ccc([N+](=O)[O-])cc2)cc1` [Example 843, 2-[(R)-4-(4-nitro-benzenesulfonyl)-3-(4-propyl-benzylcarbamoyl)-piperazin-1-yl]-pyrido[3,4-b]pyrazine-8-carboxylic acid] gave an IC50 [1, 5] of under 0.1 µM and an IC50 [2, 6] of under 0.1 µM.

Work on `CCc1ccc(S(=O)(=O)N2CCN(c3cnc(C(=O)O)cn3)C[C@@H]2C(=O)NCc2ccc(OC(F)(F)F)cc2)cc1` [Example 786, (R)-4-(4-ethyl-benzenesulfonyl)-3-(4-trifluoromethoxy-benzylcarbamoyl)-3,4,5,6-tetrahydro-2H-[1,2′]bipyrazinyl-5′-carboxylic acid] yielded an IC50 [1, 5] of under 0.1 µM and an IC50 [2, 6] of under 0.1 µM.

Work on `CC(=O)N1CCN(S(=O)(=O)c2cccc(C(F)(F)F)c2)[C@@H](C(=O)NCc2ccc(C(C)C)cc2)C1` [Example 263, (R)-4-acetyl-1-(3-trifluoromethyl-benzenesulfonyl)-piperazine-2-carboxylic acid 4-isopropyl-benzylamide] yielded an IC50 [1, 3] of 0.1 to 1 µM and an IC50 [2, 4] of 0.1 to 1 µM.

`CCCc1ccc(CNC(=O)[C@H]2CN(c3nc(C)c(C(=O)O)s3)CCN2S(=O)(=O)c2ccc(CC)cc2)cc1` [Example 414, 2-[(R)-4-(4-ethyl-benzenesulfonyl)-3-(4-propyl-benzylcarbamoyl)-piperazin-1-yl]-4-methyl-thiazole-5-carboxylic acid] showed an IC50 [1, 3] of under 0.1 µM and an IC50 [2, 4] of under 0.1 µM.

`Cc1c(Cl)c(=O)nc2sc(N3CCN(S(=O)(=O)c4ccc(OC(F)(F)F)cc4)[C@@H](C(=O)NCc4ccc(OC(F)(F)F)cc4)C3)nn12` [Example 1026, (R)-4-(6-chloro-5-methyl-7-oxo-7H-[1,3,4]thiadiazolo[3,2-a]pyrimidin-2-yl)-1-(4-trifluoromethoxy-benzenesulfonyl)-piperazine-2-carboxylic acid 4-trifluoromethoxy-benzylamide] showed an IC50 [1, 5] of under 0.1 µM and an IC50 [2, 6] of under 0.1 µM.

In the case of `CNC(=O)c1cc(=O)nc2sc(N3CCN(S(=O)(=O)c4ccc(OC(F)(F)F)cc4)[C@@H](C(=O)NCc4ccc(OC(F)(F)F)cc4)C3)nn12` [Example 990, 7-oxo-2-[(R)-4-(4-trifluoromethoxy-benzenesulfonyl)-3-(4-trifluoromethoxy-benzylcarbamoyl)-piperazin-1-yl]-7H-[1,3,4]thiadiazolo[3,2-a]pyrimidine-5-carboxylic acid methylamide], the IC50 [1, 5] is reported as under 0.1 µM and the IC50 [2, 6] is reported as under 0.1 µM.

With `O=C(NCc1c(Cl)cc(Cl)cc1Cl)[C@H]1CN(c2cnc3cncnc3n2)CCN1S(=O)(=O)c1ccc(OC(F)(F)F)cc1` [Example 797, (R)-4-pteridin-7-yl-1-(4-trifluoromethoxy-benzenesulfonyl)-piperazine-2-carboxylic acid 2,4,6-trichloro-benzylamide] the IC50 [1, 5] was under 0.1 µM and the IC50 [2, 6] was under 0.1 µM.

`COc1cccc(CNC(=O)[C@H]2CN(C(C)=O)CCN2S(=O)(=O)c2ccc(OC(F)(F)F)cc2)c1` [Example 636, (R)-4-acetyl-1-(4-trifluoromethoxy-benzenesulfonyl)-piperazine-2-carboxylic acid 3-methoxy-benzylamide] showed an IC50 [1, 3] of over 1 µM and an IC50 [2, 4] of over 1 µM.

With `CCCc1ccc(CNC(=O)[C@H]2CN(c3cnc4cncc(C(=O)O)c4n3)CCN2S(=O)(=O)c2ccc(C(C)(C)C)cc2)cc1` [Example 844, 2-[(R)-4-(4-tert-butyl-benzenesulfonyl)-3-(4-propyl-benzylcarbamoyl)-piperazin-1-yl]-pyrido[3,4-b]pyrazine-8-carboxylic acid] the IC50 [1, 5] was under 0.1 µM and the IC50 [2, 6] was under 0.1 µM.

Work on `COCc1ccc(CNC(=O)[C@H]2CN(c3cnc(C(=O)O)cn3)CCN2S(=O)(=O)c2ccc(OC(F)(F)F)cc2)cc1` [Example 473, (R)-3-(4-methoxymethyl-benzylcarbamoyl)-4-(4-trifluoromethoxy-benzenesulfonyl)-3,4,5,6-tetrahydro-2H-[1,2′]bipyrazinyl-5′-carboxylic acid] yielded an IC50 [1, 3] of under 0.1 µM and an IC50 [2, 4] of under 0.1 µM.

`COc1ccc(S(=O)(=O)N2CCN(C(C)=O)C[C@@H]2C(=O)NCc2ccc(C(C)C)cc2)cc1` [Example 214, (R)-4-acetyl-1-(4-methoxy-benzenesulfonyl)-piperazine-2-carboxylic acid 4-isopropyl-benzylamide] showed an IC50 [1, 3] of 0.1 to 1 µM and an IC50 [2, 4] of 0.1 to 1 µM.
